Experimental findings from ChEMBL document CHEMBL3352087 (J Med Chem, 2014) are described below.

Structures are written as SMILES. Converted amounts (≈) assume the structure as drawn.

In series [1] the test system is Brain. Put plainly: Free drug level in Sprague-Dawley rat brain at 60 mg/kg, po measured at 3 hrs post dose. It counts as ADME, organism-based. Set-up: dose 60 mg/kg, route oral. Conditions: in vivo.
In series [2] the test system is Plasma. In words: Free plasma concentration in Sprague-Dawley rat at 60 mg/kg, po measured at 5 hrs post dose. In kind it is ADME, organism-based. Also on record: dose 60 mg/kg, route oral. Particulars: in vivo.
Series [3] addresses T1, Beta-secretase 1 (Homo sapiens, UniProt P56817). Put plainly: Inhibition of purified recombinant human BACE1 expressed in CHO cells assessed as uncleaved biotinylated sAPP after 2 hrs by HTRF assay.
Series [4] can be described thus: Fraction unbound in Sprague-Dawley rat brain. In kind it is ADME, tissue-based.
Series [5] relates to Plasma. Put plainly: Free plasma concentration in Sprague-Dawley rat at 60 mg/kg, po measured at 3 hrs post dose. It counts as ADME, organism-based. Set-up: dose 60 mg/kg, route oral. Particulars: in vivo.
A short description of series [6]: Drug level in Sprague-Dawley rat CSF at 60 mg/kg, po measured at 5 hrs post dose. In kind it is ADME, organism-based, Cerebrospinal fluid. Conditions: read-out: Drug uptake. Set-up: dose 60 mg/kg, route oral.
A short description of series [7]: Drug level in Sprague-Dawley rat CSF at 60 mg/kg, po measured at 3 hrs post dose. Also on record: dose 60 mg/kg, route oral. Conditions: read-out: Drug uptake. It counts as ADME, organism-based, Cerebrospinal fluid.
Series [8] has as its target T1, Beta-secretase 1. Put plainly: Inhibition of BACE1 in HEK293 cells expressing swedish double mutant APP assessed as amyloid beta (1 to 40) peptide level after 7 hrs by HTRF assay. It counts as cell-based.
In series [9] the test system is Rattus norvegicus. Put plainly: Reduction in amyloid beta(1 to 40) in Sprague-Dawley rat CSF at 60 mg/kg, po measured at 5 hrs post dose. It counts as functional. Also on record: scale not given: the % may be the effect or the level left.
Series [10] in a line: Ratio of free drug level in brain of Sprague-Dawley rat at 60 mg/kg, po measured at 5 hrs post dose to IC50 for BACE1 in HEK293 cells expressing swedish double mutant APP. In kind it is ADME, organism-based. Set-up: dose 60 mg/kg, route oral. Particulars: in vivo.
Series [11] can be described thus: Ratio of free drug level in brain of Sprague-Dawley rat at 60 mg/kg, po measured at 3 hrs post dose to IC50 for BACE1 in HEK293 cells expressing swedish double mutant APP. It counts as ADME, organism-based. Set-up: dose 60 mg/kg, route oral. Conditions: in vivo.
In series [12] the test system is Rattus norvegicus. In words: Reduction in amyloid beta(1 to 40) in Sprague-Dawley rat CSF at 60 mg/kg, po measured at 3 hrs post dose. Set-up: scale not given: the % may be the effect or the level left. It counts as functional.
The nature of series [13]: Ratio of free drug level in brain to plasma of Sprague-Dawley rat at 60 mg/kg, po measured at 3 hrs post dose. Particulars: brain and plasma, read-out: BPR. In kind it is ADME, organism-based. Also on record: dose 60 mg/kg, route oral.
Series [14] is described as follows: Solubility of the compound at pH 7.2. Conditions: buffer. In kind it is physicochemical.
The test system of series [15] is LLC-PK1. In words: Efflux ratio of permeability from basolateral to apical side to apical to basolateral side in pig LLC-PK1 cells transfected with human MDR1 at 1 uM. In kind it is ADME, cell-based, Sus scrofa. Conditions: llc-pk1, 1 µM, 1 µM.
Series [16] deals with Brain. Put plainly: Free drug level in Sprague-Dawley rat brain at 60 mg/kg, po measured at 5 hrs post dose. It counts as ADME, organism-based. Set-up: dose 60 mg/kg, route oral. Conditions: in vivo.
Series [17] is described as follows: Ratio of free drug level in brain to plasma of Sprague-Dawley rat at 60 mg/kg, po measured at 5 hrs post dose. Also on record: dose 60 mg/kg, route oral. In kind it is ADME, organism-based. Conditions: brain and plasma, read-out: BPR.
Series [18] has as its system LLC-PK1. Put plainly: Apparent permeability from apical to basolateral side in pig LLC-PK1 cells transfected with human MDR1. It counts as ADME, cell-based, Sus scrofa. Particulars: llc-pk1.

T1 sequence (P56817 whole entry): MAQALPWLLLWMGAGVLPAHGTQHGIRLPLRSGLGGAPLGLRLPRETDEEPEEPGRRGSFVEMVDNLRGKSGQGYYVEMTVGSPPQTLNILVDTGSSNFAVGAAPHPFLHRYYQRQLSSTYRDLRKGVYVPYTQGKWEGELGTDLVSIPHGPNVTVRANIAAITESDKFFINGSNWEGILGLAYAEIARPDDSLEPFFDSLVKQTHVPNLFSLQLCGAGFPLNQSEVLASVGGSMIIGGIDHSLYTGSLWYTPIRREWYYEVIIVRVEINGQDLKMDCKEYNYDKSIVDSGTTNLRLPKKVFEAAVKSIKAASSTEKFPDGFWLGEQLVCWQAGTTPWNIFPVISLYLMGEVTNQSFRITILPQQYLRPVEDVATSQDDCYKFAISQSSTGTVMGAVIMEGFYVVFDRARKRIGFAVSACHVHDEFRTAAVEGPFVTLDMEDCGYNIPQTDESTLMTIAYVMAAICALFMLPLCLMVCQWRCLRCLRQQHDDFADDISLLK

For orientation: IC50 means the concentration needed to halve the response being measured. The fraction unbound is the share of the substance not bound to proteins or other matrix. The solubility is the dissolved amount per volume that the medium holds. For orientation: Papp means a coefficient for how fast a substance crosses the barrier. For the compound `C[C@]12CCCO[C@@H]1[C@]1(COC(N)=N1)c1cc(-c3cccc(C#N)c3)ccc1O2`, the results for the “Drug uptake(free)” value in the series on Brain [1] and with Brain [16] were 88 nM and 80 nM, respectively. The “Cp(f)” value in the series on Plasma [2] is recorded as 250 nM; in the series with Plasma [5], 270 nM. Besides, the results for the concentration for half-maximal inhibition (IC50) at Beta-secretase 1 [3] and on Beta-secretase 1 [8] were 45 nM and 39 nM, respectively. The fraction unbound in series [4] is 0.014. The concentration at 5 h in [6] came to 230 nM. Also, in [7], the concentration at 3 h was 150 nM. Besides, the Activity in the series with Rattus norvegicus [9] came out at 69%; with Rattus norvegicus [12] it was 63%. The Ratio in [10] was found to be 2.1; in series [11], 2.3; with LLC-PK1 [15], 3.4. The Kp uu at 3 h in series [13] was 0.33. In series [14], this compound gave a solubility of 57 µg/mL (≈ 152 µM). Besides, the Kp uu at 5 h in series [17] was determined as 0.32. Moreover, the apparent permeability (Papp) with LLC-PK1 [18] is reported as 19 ×10⁻⁶ cm/s.
